Molecules are shown by their SMILES.

1 compound from PMC4527730, “A Pan-GTPase Inhibitor as a Molecular Probe” (PLoS ONE, 2015) can be followed below.

The subject of assay [1] is EGFR degradation, HeLa cells overexpressing Rab7 wild type. Put plainly: EGFR degradation in Rab7 overexpressing HeLa cells. The following applies: HeLa cells overexpressing Rab7, 100 μM, 3 h, 0-180 min. It is filed as cell-based. The method, then: The EGFR degradation assay in HeLa cells was carried out in a similar way to that in SCC-12F cells but with modifications. […] Cell lysates were prepared at various time points and immunoblotted for total EGFR while actin served as a loading control. Experiments were carried out in triplicate.

Assay [2] concerns GTPases (H-Ras, H-Ras G12V, Cdc42, Cdc42 Q61L, Rac1, Rac1 Q61L, RhoA, Rab7). Description: Multiplex dose-response assay, statements across the GTPase panel.
Method: (§1) Briefly, individual GST-GTPases were separately attached to glutathione microsphere beads that were labeled with varying intensity of red fluorescent dye, and subsequently combined. The buffer contains 30 mM HEPES (pH 7.2), 150 mM KCl, 20 mM NaCl, 0.1% BSA, 1 mM DTT, 1 mM EDTA and 0.1% NP-40. For Rho A and Rac1, 1 mM EDTA was replaced with 1 mM MgCl2 to stabilize the protein. […] To study whether the compounds are slow binders, BODIPY^- FL GTP was added either immediately or 2 h after compound addition. […] The curves were fitted to the sigmoidal dose-response equation using GraphPad Prism. Percent response was calculated as the ratio of (sample MCF–negative control MCF) / (positive control MCF–negative control MCF).
Assay [3] concerns the target H-Ras (Homo sapiens, UniProt P01112). Put plainly: Multiplex bead-based flow cytometry dose-response of fluorescent guanine nucleotide binding. In general terms: Flow cytometry measures light scatter and fluorescence of single cells or particles in a stream.
Method: (§2) Briefly, individual GST-GTPases were separately attached to glutathione microsphere beads that were labeled with varying intensity of red fluorescent dye, and subsequently combined. The buffer contains 30 mM HEPES (pH 7.2), 150 mM KCl, 20 mM NaCl, 0.1% BSA, 1 mM DTT, 1 mM EDTA and 0.1% NP-40. […] To study whether the compounds are slow binders, BODIPY^- FL GTP was added either immediately or 2 h after compound addition. […] The curves were fitted to the sigmoidal dose-response equation using GraphPad Prism. Percent response was calculated as the ratio of (sample MCF–negative control MCF) / (positive control MCF–negative control MCF).
Assay [4] addresses H-Ras G12V (Homo sapiens, UniProt P01112, G12V). The description is as above. The following applies: EC50 H-Ras G12V.
Method: as §2
Assay [5] deals with Cdc42 (Homo sapiens, UniProt P60953). The assay is described as above.
Method: as §2
The target of assay [6] is RhoA (Homo sapiens, UniProt P61586). The description is as above. The following applies: EC50 RhoA.
Method: as §1
The mark [7] stands for this setting: concentration dependence on BODIPY-FL GDP.

H-Ras, sequence (P01112 whole entry): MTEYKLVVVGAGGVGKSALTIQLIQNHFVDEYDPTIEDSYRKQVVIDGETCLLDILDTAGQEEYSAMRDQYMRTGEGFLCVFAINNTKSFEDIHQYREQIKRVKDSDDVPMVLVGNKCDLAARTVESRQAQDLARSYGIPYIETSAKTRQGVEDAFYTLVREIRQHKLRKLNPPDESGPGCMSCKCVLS
Cdc42, sequence (P60953 whole entry): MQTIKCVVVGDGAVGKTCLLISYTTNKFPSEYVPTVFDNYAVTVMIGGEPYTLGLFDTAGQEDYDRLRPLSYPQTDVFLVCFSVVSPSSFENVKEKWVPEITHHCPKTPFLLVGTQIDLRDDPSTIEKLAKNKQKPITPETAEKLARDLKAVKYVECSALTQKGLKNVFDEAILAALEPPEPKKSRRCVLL
H-Ras G12V, sequence (P01112 whole entry G12V): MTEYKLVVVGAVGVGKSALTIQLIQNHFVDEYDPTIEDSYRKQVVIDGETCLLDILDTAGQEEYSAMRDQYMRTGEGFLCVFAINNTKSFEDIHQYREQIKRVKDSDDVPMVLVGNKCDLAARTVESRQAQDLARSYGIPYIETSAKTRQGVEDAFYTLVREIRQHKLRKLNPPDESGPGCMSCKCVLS
RhoA, sequence (P61586 whole entry): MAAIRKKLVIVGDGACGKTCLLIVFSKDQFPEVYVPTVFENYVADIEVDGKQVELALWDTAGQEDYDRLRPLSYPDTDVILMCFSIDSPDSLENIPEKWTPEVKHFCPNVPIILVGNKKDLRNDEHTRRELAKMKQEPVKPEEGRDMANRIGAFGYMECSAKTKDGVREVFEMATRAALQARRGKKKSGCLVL

Consider `CC1(C)Cc2c(sc(NC(=S)NC(=O)c3ccccc3)c2C(=O)O)CO1` [Compound 1], for which the EGFR degradation result in assay [1] is “delayed EGFR degradation”. Moreover, in assay [2] (SAR versus compound 1), the “inhibitory activity on BODIPY-FL GTP binding across all GTPases tested (in words)” value was “inhibited BODIPY^- FL GTP binding to all the GTPases tested in a dose-dependent manner”. The slow binding behaviour entry in assay [2] (two-hour incubation or no incubation before BODIPY-FL GTP) is “not a slow binder”. For the same compound, the EC50 – broadly, the concentration giving half of the maximal effect – in assay [3] (EC50 H-Ras, BODIPY-FL GTP binding, 2 h at 4°C) is 160 ± 160 nM; in assay [3] (EC50 H-Ras, concentration dependence on BODIPY-FL GDP), 240 nM; in assay [3] (EC50 Ras, with 2 h incubation before BODIPY-FL GTP), 100 ± 3.5 nM; in assay [3] (EC50 Ras, without incubation before BODIPY-FL GTP), 130 ± 2.6 nM; in assay [4] (BODIPY-FL GTP binding, 2 h at 4°C), 52 ± 44 nM; in assay [4] (setting [7]), 260 nM. The EC50 amounted to 1090 ± 1620 nM in assay [5] (EC50 Cdc42, BODIPY-FL GTP binding, 2 h at 4°C); 420 nM in assay [5] (EC50 Cdc42, concentration dependence on BODIPY-FL GDP); 2060 ± 38 nM in assay [5] (EC50 Cdc42_1, with 2 h incubation before BODIPY-FL GTP, Cdc42 purified in house); 2230 ± 1470 nM in assay [5] (EC50 Cdc42_1, without incubation before BODIPY-FL GTP, Cdc42 purified in house); 3710 ± 39 nM in assay [5] (EC50 Cdc42_2, with 2 h incubation before BODIPY-FL GTP, Cdc42 from Cytoskeleton); 4460 ± 2630 nM in assay [5] (EC50 Cdc42_2, without incubation before BODIPY-FL GTP, Cdc42 from Cytoskeleton). The 50% effective concentration (EC50) in assay [6] (BODIPY-FL GTP binding, 2 h at 4°C, 1 mM MgCl2) was determined as 62 ± 49 nM; in assay [6] (setting [7]), 100 nM.
